Patent US8841413B2, “Antidiabetic compounds” (Cadila Healthcare Limited, priority 2006, dated 2014)

Assays:
C57BL/6J mice = test: Acute single dose 120-min time-course experiment, in vivo glucose reduction in C57BL/6J mice; parameters: unit not given here; conditions: male C57BL/6J mice, Mean ± SEM
Procedure: All the animal experiments were carried out according to the internationally valid guidelines following approval by the ‘Zydus Research Center animal ethical committee’. […] Two days prior to the study, the animals were randomised and divided into 5 groups (n=6), based upon their fed glucose levels. On the day of experiment, food was withdrawn from all the cages, water was given ad-libitum and were kept for overnight fasting. Vehicle (normal saline)/test/standard compounds were administered intraperitoneally (i.p.) or orally, on a body weight basis. […] Blood samples were centrifuged and the separated serum was immediately subjected for the glucose estimation. Serum for insulin estimation was stored at −70° C. until used for the insulin estimation. The glucose estimation was carried out with DPEC-GOD/POD method (Ranbaxy Fine Chemicals Limited, Diagnostic division, India), using Spectramax-190, in 96-microwell plate reader (Molecular devices Corporation, Sunnyvale, Calif.). […] The AUC and BCAUC obtained from graphs were analyzed for one way ANOVA, followed by Dunnett's post test, using Graph Pad prism software. Furthermore, the insulin estimation was carried out using rat/mouse insulin ELISA kit (Linco research, Mo. USA).

Human GLP-1 receptor = target: T1, Human GLP-1 receptor (Homo sapiens, UniProt P43220); type: cell-based; conditions: in vitro, FIG. 4
T1 construct: The full-length cDNA was cloned in pcDNA3.1(+); expressed in transfected cells
T1 sequence (P43220 24-463): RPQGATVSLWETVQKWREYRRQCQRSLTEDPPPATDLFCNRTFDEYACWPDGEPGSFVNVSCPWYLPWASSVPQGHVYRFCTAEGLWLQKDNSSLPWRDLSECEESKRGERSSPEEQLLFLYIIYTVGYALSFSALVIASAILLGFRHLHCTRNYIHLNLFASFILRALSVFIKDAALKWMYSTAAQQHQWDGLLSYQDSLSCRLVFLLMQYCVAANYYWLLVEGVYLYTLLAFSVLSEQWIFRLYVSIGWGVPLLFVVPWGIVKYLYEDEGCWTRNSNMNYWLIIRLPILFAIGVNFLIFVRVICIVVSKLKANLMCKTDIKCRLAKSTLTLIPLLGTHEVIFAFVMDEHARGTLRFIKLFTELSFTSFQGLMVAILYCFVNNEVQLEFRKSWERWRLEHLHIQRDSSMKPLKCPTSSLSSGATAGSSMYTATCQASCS
Procedure: The novel peptidomimetics were screened for Human GLP-1 receptor (HGLP-1 R) agonist activity (in vitro), using the cAMP cell-based assay, in stably transfected CHO/human GLP1R cells. […] CHO cells were grown in Ham's F12 medium containing L-Glutamine (2 mM), HEPES (25 mM), NaHCO3 (1.1 g/L) and supplemented with NewBorn Calf Serum (NBCS; 10%), Penicillin (50 U/ml (v/v)) and Streptomycin (50 ug/ml (v/v)). Cells were split every 3 days 1:8.
The cDNA encoding the human GLP-1 receptor was isolated by RT-PCR according to standard protocol. The full-length cDNA was cloned in pcDNA3.1(+). […] Clones expressing the receptor were generated by G418 (800 μg/ml active, Sigma) selection. The stable clones were thereafter maintained at 500 ug/ml (G418). The selected clone was used between passages 9-25 for cAMP assays.
The trypsin was inactivated using Ham's F12 medium containing 10% NBCS and the cells were suspended in 2 ml of complete medium. […] The medium was aspirated off from the 12 well plate and the cells were washed once using Ham's F12 (plain). […] The cells were incubated with the test compounds for 30 min in humidified atmosphere and 37° C. After the incubation, the medium was removed and cells were washed once with plain Ham's F12. Subsequently, the cells were lysed by adding 500 ul of ice cold 0.1 N HCl to each well and shaking for 30 minutes at 200 rpm. […] The total cAMP was estimated from the sample according to the manufacturer's protocol using Cyclic AMP immunoassay kit (R&D systems, Minneapolis. MN). The remaining supernatant is used to determine the protein concentration using micro BCA (Sigma). Data is calculated as percent of control (Vehicle: water) and expressed as Mean±SD.

| SMILES | blood glucose level (C57BL/6J mice; 10 nM/kg, i.p, 0 min) | blood glucose level (C57BL/6J mice; 10 nM/kg, i.p, 30 min) | blood glucose level (C57BL/6J mice; 10 nM/kg, i.p, 60 min) | blood glucose level (C57BL/6J mice; 10 nM/kg, i.p, 120 min) | blood glucose level (C57BL/6J mice; 2 μM/kg, oral, 0 min) | blood glucose level (C57BL/6J mice; 2 μM/kg, oral, 30 min) | blood glucose level (C57BL/6J mice; 2 μM/kg, oral, 60 min) | blood glucose level (C57BL/6J mice; 2 μM/kg, oral, 120 min) | other results |
| --- | --- | --- | --- | --- | --- | --- | --- | --- | --- |
| CCc1cc(OC)ccc1-c1ccc(CC(NC(=O)[C@H](CC(=O)O)NC(=O)[C@H](CO)NC(=O)[C@@H](NC(=O)[C@H](Cc2ccccc2)NC(=O)[C@@H](NC(=O)CNC(=O)[C@H](CCC(N)=O)NC(=O)C2(NC(=O)[C@@H](N)Cc3c[nH]cn3)CC2)[C@@H](C)O)[C@@H](C)O)C(=O)NC(Cc2ccc(-c3ccccc3F)cc2)C(N)=O)cc1 (single isomer, unassigned) [Seq. ID. No. 19, H-(ACP)-QGTFTSD-Bip(OMe)-Bip(2F)] |  |  |  |  |  |  |  |  | blood glucose level (C57BL/6J mice; 30 nM/kg, i.p, 0 min): 180 ± 3.2; blood glucose level (C57BL/6J mice; 30 nM/kg, i.p, 30 min): 119 ± 3.2; blood glucose level (C57BL/6J mice; 30 nM/kg, i.p, 60 min): 117 ± 3.1; blood glucose level (C57BL/6J mice; 30 nM/kg, i.p, 120 min): 118 ± 1.8 |
| CCc1cc(OC)ccc1-c1ccc(CC(NC(=O)[C@H](CC(=O)O)NC(=O)[C@H](CO)NC(=O)[C@@H](NC(=O)C(C)(Cc2ccccc2F)NC(=O)[C@@H](NC(=O)CNC(=O)[C@H](CCC(N)=O)NC(=O)C(C)(C)NC(=O)[C@@H](N)Cc2c[nH]cn2)[C@@H](C)O)[C@@H](C)O)C(=O)NC(Cc2ccc(-c3ccccc3C)nc2)C(N)=O)cc1 (single isomer, unassigned) [Seq. ID. No. 30, H-Aib-QGT-(α-Me-2F-Phe)-TSD-Bip(OMe)-Bip(Pyr)] | 182 ± 2.1 | 111 ± 2.1 | 112 ± 2.8 | 113 ± 2.2 | 183 ± 2.4 | 116 ± 3.1 | 112 ± 4.8 | 110 ± 2.5 |  |
| CCc1cc(OC)ccc1-c1ccc(CC(NC(=O)[C@H](CC(=O)O)NC(=O)[C@H](CO)NC(=O)[C@@H](NC(=O)[C@H](Cc2ccccc2)NC(=O)[C@@H](NC(=O)CNC(=O)[C@H](CCC(N)=O)NC(=O)[C@H](C)NC(=O)[C@@H](N)Cc2c[nH]cn2)[C@@H](C)O)[C@@H](C)O)C(=O)NC(Cc2ccc(-c3ccccc3C(F)(F)F)cc2)C(N)=O)cc1 (single isomer, unassigned) [Seq. ID. No. 12] |  |  |  |  |  |  |  |  | blood glucose level (C57BL/6J mice; 50 nM/kg, i.p, 0 min): 184 ± 5.0; blood glucose level (C57BL/6J mice; 50 nM/kg, i.p, 30 min): 122 ± 3.8; blood glucose level (C57BL/6J mice; 50 nM/kg, i.p, 60 min): 128 ± 2.1; blood glucose level (C57BL/6J mice; 50 nM/kg, i.p, 120 min): 149 ± 2.3 |
| CCc1cc(OC)ccc1-c1ccc(CC(NC(=O)[C@H](CC(=O)O)NC(=O)[C@H](CO)NC(=O)[C@@H](NC(=O)C(C)(Cc2ccccc2F)NC(=O)[C@@H](NC(=O)CNC(=O)[C@H](CCC(N)=O)NC(=O)C2(NC(=O)[C@@H](N)Cc3c[nH]cn3)CC2)[C@@H](C)O)[C@@H](C)O)C(=O)NC(Cc2ccc(-c3ccccc3C)cc2)C(N)=O)cc1 (single isomer, unassigned) [Seq. ID. No. 33, H-(ACP)-QGT-(α-Me-2F-Phe)-TSD-Bip(OMe)-Bip(2Me)] | 181 ± 2.5 | 111 ± 3.4 | 113 ± 3.1 | 110 ± 1.8 | 182 ± 2.5 | 116 ± 3.1 | 113 ± 4.1 | 110 ± 2.8 |  |
| CCc1cc(OC)ccc1-c1ccc(CC(NC(=O)[C@H](CC(=O)O)NC(=O)[C@H](CO)NC(=O)[C@@H](NC(=O)C(C)(Cc2ccccc2F)NC(=O)[C@@H](NC(=O)CNC(=O)[C@H](CCC(N)=O)NC(=O)C(C)(C)NC(=O)[C@@H](N)Cc2c[nH]cn2)[C@@H](C)O)[C@@H](C)O)C(=O)NC(Cc2ccc(-c3ccccc3F)cc2)C(N)=O)cc1 (single isomer, unassigned) [Seq. ID. No. 31, H-Aib-QGT-(α-Me-2F-Phe)-TSD-Bip(OMe)-Bip(2F)] | 183 ± 2.2 | 113 ± 2.8 | 113 ± 2.9 | 114 ± 2.0 | 185 ± 2.3 | 115 ± 3.8 | 113 ± 4.9 | 109 ± 2.2 |  |
| CCc1cc(OC)ccc1-c1ccc(CC(NC(=O)[C@H](CC(=O)O)NC(=O)[C@H](CO)NC(=O)[C@@H](NC(=O)C(C)(Cc2ccccc2F)NC(=O)[C@@H](NC(=O)CNC(=O)[C@H](CCC(N)=O)NC(=O)C2(NC(=O)[C@@H](N)Cc3c[nH]cn3)CC2)[C@@H](C)O)[C@@H](C)O)C(=O)NC(Cc2ccc(-c3ccccc3C(F)(F)F)cc2)C(N)=O)cc1 (single isomer, unassigned) [Seq. ID. No. 36, H-(ACP)-QGT-(α-Me-2F-Phe)-TSD-Bip(OMe)-Bip(2CF3)] | 180 ± 2.8 | 110 ± 3.6 | 112 ± 2.3 | 112 ± 1.6 | 183 ± 2.3 | 119 ± 3.0 | 112 ± 4.3 | 109 ± 2.6 |  |
| CCc1cc(OC)ccc1-c1ccc(CC(NC(=O)[C@H](CC(=O)O)NC(=O)[C@H](CO)NC(=O)[C@@H](NC(=O)C(C)(Cc2ccccc2F)NC(=O)[C@@H](NC(=O)CNC(=O)[C@H](CCC(N)=O)NC(=O)C2(NC(=O)[C@@H](N)Cc3c[nH]cn3)CC2)[C@@H](C)O)[C@@H](C)O)C(=O)NC(Cc2ccc(-c3ccccc3C)nc2)C(N)=O)cc1 (single isomer, unassigned) [Seq. ID. No. 34, H-(ACP)-QGT-(α-Me-2F-Phe)-TSD-Bip(OMe)-Bip(Pyr)] | 180 ± 4.2 | 113 ± 3.2 | 112 ± 2.4 | 110 ± 1.9 | 184 ± 2.2 | 118 ± 3.3 | 112 ± 4.4 | 110 ± 2.9 |  |
| CCc1cc(OC)ccc1-c1ccc(CC(NC(=O)[C@H](CC(=O)O)NC(=O)[C@H](CO)NC(=O)[C@@H](NC(=O)C(C)(Cc2ccccc2F)NC(=O)[C@@H](NC(=O)CNC(=O)[C@H](CCC(N)=O)NC(=O)[C@H](C)NC(=O)[C@@H](N)Cc2c[nH]cn2)[C@@H](C)O)[C@@H](C)O)C(=O)NC(Cc2ccc(-c3ccccc3C(F)(F)F)cc2)C(N)=O)cc1 (single isomer, unassigned) [Seq. ID. No. 28, HAQGT-(α-Me-2F-Phe)-TSD-Bip(OMe)-Bip(2CF3)] |  |  |  |  |  |  |  |  | blood glucose level (C57BL/6J mice; 20 nM/kg, i.p, 0 min): 182 ± 2.1; blood glucose level (C57BL/6J mice; 20 nM/kg, i.p, 30 min): 121 ± 2.9; blood glucose level (C57BL/6J mice; 20 nM/kg, i.p, 60 min): 130 ± 3.1; blood glucose level (C57BL/6J mice; 20 nM/kg, i.p, 120 min): 138 ± 2.4 |
| CCc1cc(OC)ccc1-c1ccc(CC(NC(=O)[C@H](CC(=O)O)NC(=O)[C@H](CO)NC(=O)[C@@H](NC(=O)[C@H](Cc2ccccc2)NC(=O)[C@@H](NC(=O)CNC(=O)[C@H](CCC(N)=O)NC(=O)[C@H](CO)NC(=O)[C@@H](N)Cc2c[nH]cn2)[C@@H](C)O)[C@@H](C)O)C(=O)NC(Cc2ccc(-c3ccccc3C)cc2)C(N)=O)cc1 (single isomer, unassigned) [Seq. ID. No. 5] |  |  |  |  |  |  |  |  | GLP-1 receptor agonistic activity (in words) (Human GLP-1 receptor): GLP-1 receptor agonistic activity |
